The target of data set [1] is T1, CYP2A7*1 (Homo sapiens, UniProt P20853).
T1 sequence (P20853 1-494): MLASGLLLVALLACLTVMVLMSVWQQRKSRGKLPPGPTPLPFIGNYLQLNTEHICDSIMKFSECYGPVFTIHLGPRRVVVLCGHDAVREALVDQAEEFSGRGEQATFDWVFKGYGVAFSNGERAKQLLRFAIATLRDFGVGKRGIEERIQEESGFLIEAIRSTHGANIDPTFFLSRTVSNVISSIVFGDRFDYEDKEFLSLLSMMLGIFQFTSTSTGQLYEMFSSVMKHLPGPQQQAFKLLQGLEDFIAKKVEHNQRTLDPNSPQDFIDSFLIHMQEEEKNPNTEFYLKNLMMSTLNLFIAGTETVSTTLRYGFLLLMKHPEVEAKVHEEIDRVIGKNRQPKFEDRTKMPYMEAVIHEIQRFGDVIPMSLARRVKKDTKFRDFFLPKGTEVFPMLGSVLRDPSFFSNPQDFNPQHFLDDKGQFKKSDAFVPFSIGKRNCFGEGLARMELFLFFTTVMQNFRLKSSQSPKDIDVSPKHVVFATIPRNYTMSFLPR
The data set can be described thus: Conversion of luminogenic (proluciferin) substrates by permeabilized fission yeast cells (enzyme bags). The class given is biochemical. Details: expressed in transfected cells; host or cells: Schizosaccharomyces pombe strain RAJ127 (pREP1-CYP2A7*1 in CAD62), permeabilized cells (enzyme bags). Conditions: for Conversion of luminogenic substrate (in words): by CYP2A7*1, vs. negative control (CPR only); for Luminescence (RLU): enzyme CYP2A7*1 coexpressed with CPR, compound as substrate, 3 h, 37 °C, mean ± SD. As for the experimental part:
(§1) Briefly, a concentrated CYP reaction mixture (containing a fourfold concentrated substrate and potassium phosphate buffer) was added to the cell pellets after the permeabilization and washing process. For inhibition assays, the CYP reaction mixtures with the inhibitors at a final concentration of 10 µM were pre-incubated at 37 °C for 10 min. CYP reactions were commenced by adding the twofold concentrated NADPH regeneration system. Samples were incubated for 3 h at 37 °C and 1000 rpm. After centrifugation at 16,000× g for 1 min, the supernatants were transferred to the white microtiter plates and an equal amount of reconstituted luciferin detection reagent was added to each well. Plates were then incubated at room temperature for 20 min and the luminescence was recorded on a Magellan infinite 200Pro microplate reader (Tecan; Männedorf, Switzerland). For the proluciferin substrates’ screening, the specific reaction conditions and substrate concentrations were as given in the instructions of the manufacturer (Promega). […] For inhibitor assays, ketoconazole, 1-benzylimidazole, and letrozole were added to a final concentration of 10 µM. All measurements were done at least three times in triplicates.

In data set [2] the target is T2, CYP2A7-WT (Homo sapiens, UniProt P20853, D169E/H274R/R311C/V479G).
T2 sequence (P20853 1-494 D169E/H274R/R311C/V479G): T1 sequence (P20853 1-494) with D169E, H274R, R311C, V479G
Described as above. The class given is biochemical. Details: expressed in transfected cells; host or cells: Schizosaccharomyces pombe strain AA01 (pREP1-CYP2A7-WT in CAD62), permeabilized cells (enzyme bags). The settings on record: for Luminescence (RLU): enzyme CYP2A7-WT coexpressed with CPR, compound as substrate, 3 h, 37 °C, mean ± SD. As for the experimental part:
as §1

Data set [3] has as its target T3, CYP2A6*1 (Homo sapiens, UniProt P11509).
T3 sequence (P11509 1-494): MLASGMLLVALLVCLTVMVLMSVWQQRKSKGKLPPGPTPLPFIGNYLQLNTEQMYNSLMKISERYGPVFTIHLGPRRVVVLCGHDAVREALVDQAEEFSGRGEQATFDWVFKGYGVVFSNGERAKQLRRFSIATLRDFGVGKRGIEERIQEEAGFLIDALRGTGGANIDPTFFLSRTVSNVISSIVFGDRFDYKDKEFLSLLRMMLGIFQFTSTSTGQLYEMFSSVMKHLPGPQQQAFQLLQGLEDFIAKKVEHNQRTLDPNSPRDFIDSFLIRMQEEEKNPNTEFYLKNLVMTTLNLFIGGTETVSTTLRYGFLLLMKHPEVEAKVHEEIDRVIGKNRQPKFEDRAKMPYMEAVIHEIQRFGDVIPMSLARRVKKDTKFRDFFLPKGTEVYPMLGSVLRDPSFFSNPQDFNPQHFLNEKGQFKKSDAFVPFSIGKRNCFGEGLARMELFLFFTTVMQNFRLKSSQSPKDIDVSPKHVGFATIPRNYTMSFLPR
Conditions: by CYP2A6*1, vs. negative control (CPR only). As for the experimental part:
This was performed as described previously with slight modifications. Briefly, fission yeast cells were cultured on EMM plates with 5 µM thiamine for 3 days at 30 °C. A single yeast colony was then transferred to a 10 mL liquid culture of EMM without thiamine and cultured at 30 °C and 230 rpm for 36 h. As the recombinant expression of the human enzymes is controlled by the strong endogenous nmt1 promoter, all subsequent cultures were cultured in the absence of thiamine to keep the promoter in an active state. For each activity assay, 5 × 10^7 cells (stationary growth phase) were transferred to 1.5 mL Eppendorf tubes (Axygen; Silicon Valley, USA), pelleted, and incubated in 1 mL of 0.3% Triton-X100 in Tris-KCl buffer (200 mM KCl, 100 mM Tris-HCl pH 7.8) at room temperature for 60 min at 150 rpm for permeabilization. After three washes with 1 mL NH4HCO3 buffer (50 mM, pH 7.8), cells were resuspended in phosphate buffer (pH 7.4) and then the substrate and the NADPH regeneration system were added to a total volume of 50 µL. The samples were incubated at 37 °C and 1000 rpm for 3 h. […]
This was performed as described previously with slight modifications. […] Plates were then incubated at room temperature for 20 min and the luminescence was recorded on a Magellan infinite 200Pro microplate reader (Tecan; Männedorf, Switzerland). […]

The target of data set [4] is T2, CYP2A7-WT. The data set can be described thus: in vitro.
For data set [5], the target named is T1, CYP2A7*1. The data set can be described thus: in vitro.
Data set [6] deals with T3, CYP2A6*1. The data set can be described thus: in vitro.
Data set [7] has as its target T2, CYP2A7-WT. The data set can be described thus: Fluorescence detection of coumarin 7-hydroxylation and deethylation of 7-ethoxycoumarin. The class given is biochemical. Details: expressed in transfected cells; host or cells: Schizosaccharomyces pombe strain AA01 (pREP1-CYP2A7-WT in CAD62), permeabilized cells (enzyme bags). The settings on record: by CYP2A7-WT; fluorometric. How it is done:
(§2) The fluorescence activity of CYP enzymes was measured as described with slight modifications. The solution was shaken at 37 °C for 3 h in the dark at a 50 µL final reaction volume. Afterwards, reactions were stopped by adding 350 µL ethyl acetate. The reaction tubes were vortexed for 5 min before centrifugation at 16,000× g for 8 min. Finally, 200 µL of the upper phase was extracted three times with 350 µL of ethyl acetate each. In the last step, the reaction tubes were air-dried in the dark. For reconstituting the pellet we added 50 µL of methanol, which was later followed by the addition of 250 µL of 0.01 M NaOH. The amounts of de-ethylated products were quantified by using standard solutions of 7-hydroxycoumarin and 7-ethoxycoumarin. The concentrations of 7-hydroxycoumarin were determined fluorometrically with 50 µL volume using Grenier microlon flat-bottom 96-well black plates. The energies for excitation and emission were set at 368 and at 530 nm, respectively. All readings were taken in triplicate.

The target of data set [8] is T1, CYP2A7*1. The description is as above. The settings on record: by CYP2A7*1; fluorometric. Details: expressed in transfected cells; host or cells: Schizosaccharomyces pombe strain RAJ127 (pREP1-CYP2A7*1 in CAD62), permeabilized cells (enzyme bags). The class given is biochemical. How it is done:
as §2

In data set [9] the target is T3, CYP2A6*1. The data set is described as above. The class given is biochemical. Details: expressed in transfected cells; host or cells: Schizosaccharomyces pombe strain RAJ122 (pREP1-CYP2A6*1 in CAD62), permeabilized cells (enzyme bags). The settings on record: by CYP2A6*1; fluorometric. How it is done: as §2
The mark [10] stands for this setting: pH 7.4, probe Luciferin-H (100 µM).

SMILES strings stand for the structures. Changes are numbered by the printed parent chain. Read-outs that look alike come from different tables or passages of the source.

`O=C(O)[C@H]1CSC(c2nc3ccc(OCc4ccccc4)cc3s2)=N1` [Luciferin-BE]: in [1], the “Conversion of luminogenic substrate (in words)” value is “are CYP2A7*1 substrates” and the “Luminescence (RLU)” value was 16,216 ± 369 RLU. Moreover, the “Luminescence (RLU)” value in data set [2] was determined as 6312 ± 699 RLU.

As for `COc1ccc2nc(C3=NC(C(=O)O)CS3)sc2c1` (centres unmarked) [Luciferin-ME], the “Conversion of luminogenic substrate (in words)” value was “can both metabolize” in data set [1]; “can both metabolize” in data set [3]; “also acted on both substrates” in data set [2] (by CYP2A7-WT, vs. negative control (CPR only)). The “Luminescence (RLU)” value in data set [1] came to 276 ± 63 RLU; in data set [2], 439 ± 113 RLU.

`CC(=O)N1CCN(c2ccc(OCC3COC(Cn4ccnc4)(c4ccc(Cl)cc4Cl)O3)cc2)CC1` (centres unmarked) [Ketoconazole]: the inhibition at 3 h, 10 µM came to 58 ± 17% in data set [4] (setting [10]), 74 ± 4% in data set [5] (setting [10]) and 70 ± 11% in data set [6] (probe Luciferin-H (100 µM)).

As to `c1ccc(Cn2ccnc2)cc1` [1-Benzyl-imidazole], the inhibition at 3 h, 10 µM was determined as 80 ± 21% in [4] (pH 7.4), 55 ± 11% in data set [5] (pH 7.4) and 64 ± 12% in data set [6].

Turning to `O=c1ccc2ccccc2o1` [Coumarin, coumarin], the results for the “Conversion to 7-hydroxycoumarin” value in data set [7], in data set [8] and in data set [9] were “no reaction was observed”, “no reaction was observed” and “confirmed the activity”, respectively.

As to `CCOc1ccc2ccc(=O)oc2c1` [7-ethoxycoumarin], the “Conversion to 7-hydroxycoumarin” value in data set [7] was “no reaction was observed”; in [8], “no reaction was observed”; in data set [9], “confirmed the activity”.

Consider `N#Cc1ccc(C(c2ccc(C#N)cc2)n2cncn2)cc1` [Letrozole], for which the inhibition at 3 h, 10 µM amounted to 72 ± 13% in [4] (setting [10]), 78 ± 7% in data set [5] (setting [10]) and 64 ± 10% in data set [6] (probe Luciferin-H (100 µM)).

As usually defined, the inhibition is the change of the read-out against control, counted positive when it falls.

The values are drawn from paper PMC11123773, “Identification of New Substrates and Inhibitors of Human CYP2A7” (Molecules, 2024).
